Measurements: patent publication US20240342168A1, “SMALL MOLECULE INHIBITORS FOR ANTI-CANCER COMBINATION THERAPY” (UNIVERSITY OF CAPE TOWN, priority 2021, published 2024)

What was measured:
Format in all cases: cell-based
SiHa cells = assay: Combination index (CI) determination, Chou-Talalay method; details: INI-43 to cisplatin ratios 1:3, 1:4 and 1:5, at Fa>0.2, 2 h pre-incubation, 48 h
Procedure: (§1) To elucidate the nature of the combined use of INI-43 and cisplatin, the Chou-Talalay method was adopted (Chou T C, Talalay P. Quantitative analysis of dose-effect relationships: the combined effects of multiple drugs or enzyme inhibitors. Adv Enzym Regul. 1984; 22:27-55). Cell viability was determined after 48-h treatment at fixed INI-43 to cisplatin ratios of 1:3, 1:4 and 1:5 (Table 1 below). Cell viability was converted to fraction affected (Fa) and CI calculated using CompuSyn software (ComboSyn, Inc.).

Mel 80 = assay: as above; details: Mel 80 cervical cancer cell line
Procedure: as §1

HeLa [1] = assay: as above; details: HeLa cervical cancer cell line
Procedure: as §1

WHC05 = assay: as above; details: WHC05 oesophageal cancer cell line
Procedure: as §1

Kyse 30 = assay: as above; details: Kyse 30 oesophageal cancer cell line
Procedure: as §1

p53 in SiHa cells = assay: p53 half-life determination (cycloheximide chase, Western blot); details: 5 μM INI-43 2 h vs DMSO, then 50 μg/mL CHX
Procedure: Cells were treated with 5 μM INI-43 or DMSO for 2 hours or transfected with 20 nM si-ctrl or si-Kpnβ1 for 48 h prior to p53 half-life determination. Cells were treated with 50 μg/mL cycloheximide (CHX), and protein harvested at 0, 15, 30, 45, 60 and 90 min after CHX treatment. p53 content was analysed by western blotting. Bands were quantified by densitometrical scanning using ImageJ, normalised to GAPDH and expressed as a value relative to p53 intensity at time 0. Relative band intensities were plotted in log scale against time of CHX treatment and a linear trendline drawn. The half-life was calculated using the formula T1/2 (minutes)=Log(2)/[slope].

[2] = tested on: p53, p21 and Mcl-1 in SiHa cells; assay: Western blot of p53 and p53 targets
Procedure: For protein extraction, cells were washed with PBS and lysed using RIPA buffer (50 mM Tris-CI, pH 7.4, 150 mM NaCl, 1% (w/v) sodium deoxycholate, 0.1% (v/v) SDS, 1% (v/v) Triton X-100, 2 mM EGTA, 2 mM EDTA, 50 mM NaF, 5 mM Na2P2O7, 1× complete protease inhibitor cocktail (Roche) and 0.1 M Sodium Orthovanadate). For PARP cleavage analysis, dead cells were collected by centrifugation and combined with live cell lysates. Lysates were sonicated, centrifuged, and the supernatant quantified using the BCA Protein Assay Kit (Pierce, Thermo Scientific) according to the manufacturer's instructions. Proteins were subjected to Western blot analysis using the following antibodies: rabbit anti-Kpnβ1 (H-300, sc-11,367, Santa Cruz), rabbit anti-β-tubulin (H-235, sc-9104, Santa Cruz), rabbit anti-PARP1/2 antibody (H-250, sc-7150, Santa Cruz), mouse anti-GAPDH (0411, sc-47,724, Santa Cruz), rabbit anti-p21 (H-164, sc-756, Santa Cruz), rabbit anti-Mcl-1 (H-260, sc-20,679, Santa Cruz), mouse anti-cyclin D1 (HD11, sc-246, Santa Cruz), rabbit anti-c-Myc (N-262, sc-764, Santa Cruz), mouse anti-p53 (DO-7, M7001, DakoCytomation), mouse anti-XIAP (610,763, BD Biosciences), and rabbit anti-phospho-Histone H2AX (γH2AX, Ser139, 20E3, #9718, Cell Signal).

HeLa [3] = assay: MTT cell viability / cisplatin IC50 determination; details: for cell viability, combination treatment vs cisplatin-only: 5 μM INI-43 pre-treatment, fixed cisplatin concentrations, MTT 48 h
Procedure: (§2) HeLa, SiHa, CaSki and C33A cell lines were purchased from the American Type Culture Collection (ATCC) and maintained in Dulbecco's Modified Eagle's Medium (DMEM, Gibco, Life Technologies) containing 10% Fetal Bovine Serum (Gibco, Life Technologies), supplemented with 100 U/mL penicillin and 100 μg/mL streptomycin. Cells were cultured at 37° C. in a humidified chamber with 5% CO2. All cell lines were authenticated by DNA profiling using the Cell ID System (Promega, Madison, WI, USA).
(§3) Cells were plated in 96-well plates and subjected to single or CT (2 h INI-43 pre-treatment followed by cisplatin treatment, without removing IN1-43 from the media) for 48 h. Following treatment, MTT (Sigma) was added and 4 h later crystals solubilized using 10% SLS in 0.01 M HCl. Absorbencies were measured at 595 nm and IC50 values determined via plotting [Fa/(1-Fa)] in log scale against log cisplatin concentration, where:
(§4) The half inhibitory concentration was calculated using the formula IC50=10^x-intercept

C33A = assay: MTT cell viability / cisplatin IC50 determination
Procedure: as §2, §3, §4

SiHa = assay: MTT cell viability / cisplatin IC50 determination; details: for cell viability, combination treatment vs cisplatin-only: 5 μM INI-43 pre-treatment, fixed cisplatin concentrations, MTT 48 h
Procedure: as §2, §3, §4

CaSki = assay: MTT cell viability / cisplatin IC50 determination; details: for cell viability, combination treatment vs cisplatin-only: 5 μM INI-43 pre-treatment, fixed cisplatin concentrations, MTT 48 h
Procedure: as §2, §3, §4

[4] = tested on: NFκB-p50 and NFκB-p65 in SiHa cells; assay: Immunofluorescence of NFκB nuclear localization
Procedure: SiHa cells were plated on glass coverslips and treated for 24 h before fixation with 4% paraformaldehyde. Cells were permeabilised using 0.5% Triton-X-100/PBS and blocked using 1% BSA/PBST with 0.3 M Glycine. Primary antibody incubations were performed in 1% BSA/PBST, followed by secondary antibody incubation (Cy3 conjugated goat anti-rabbit, Jackson ImmunoResearch). Cell nuclei were counterstained with 0.5 μg/mL DAPI, and images captured using the Zeiss inverted fluorescence microscope under 100× oil immersion.

[5] = 2 h INI-43 pre-treatment then cisplatin 48 h, vs no pre-treatment

CN(C)CCCn1c(N)c(-c2nc3ccccc3[nH]2)c2nc3ccccc3nc21 [INI-43]
combination index (CI) values (SiHa cells): below 1
nature of INI-43 and cisplatin combination (CI) (Mel 80): synergism
nature of INI-43 and cisplatin combination (CI) (HeLa [1]): synergism
nature of INI-43 and cisplatin combination (CI) (WHC05): synergism
nature of INI-43 and cisplatin combination (CI) (Kyse 30): synergism
increase in p53 half-life (p53 in SiHa cells): ~2.9 fold
Mcl-1 levels, INI-43 and cisplatin vs single cisplatin ([2]; 60 μM cisplatin): reduced
p21 levels, INI-43 and cisplatin vs single cisplatin ([2]; 30 and 60 μM cisplatin): elevated
p53 protein levels ([2]; SiHa, treatment with INI-43 and cisplatin): increased
cell viability, INI-43 on its own (HeLa [3]; 5 μM INI-43): did not affect cell viability
cell viability, combination treatment vs cisplatin-only (HeLa [3]): significantly decreased cell viability
cell viability, combination treatment vs cisplatin-only (HeLa [3]; listed as Compound A): increased cisplatin sensitivity
decrease in cisplatin IC50 (HeLa [3]; [5]): 44%
cell viability, INI-43 on its own (C33A; 5 μM INI-43): did not affect cell viability
cell viability, combination treatment vs cisplatin-only (C33A; 5 μM INI-43 pre-treatment, fixed cisplatin concentrations, MTT 48 h): no change in cell viability
change in cisplatin IC50 (C33A; [5]): no change
cell viability, INI-43 on its own (SiHa; 5 μM INI-43): did not affect cell viability
cell viability, combination treatment vs cisplatin-only (SiHa): significantly decreased cell viability
cell viability, combination treatment vs cisplatin-only (SiHa; listed as Compound A): increased cisplatin sensitivity
decrease in cisplatin IC50 (SiHa; [5]): 46%
cell viability, INI-43 on its own (CaSki; 5 μM INI-43): did not affect cell viability
cell viability, combination treatment vs cisplatin-only (CaSki): significantly decreased cell viability
cell viability, combination treatment vs cisplatin-only (CaSki; listed as Compound A): increased cisplatin sensitivity
change in cisplatin IC50 (CaSki; [5]): small reduction
nuclear fluorescence relative to cytoplasmic fluorescence (Fc (Nu/Cy)) ([4]; INI-43-cisplatin CT vs cisplatin): significantly reduced this effect
cisplatin-induced nuclear translocation of NFκB-p50 and NFκB-p65 ([4]; INI-43 pre-treatment plus cisplatin): prevented this nuclear translocation
